Tests used:
[1] = system: Pseudomonas aeruginosa; test: Antibacterial activity against Pseudomonas aeruginosa ATCC 9027 assessed as growth inhibition at 10 ug/ml by disc diffusion method; assay type: functional; settings: read-out: IZ
[2] = system: Rattus norvegicus; test: Antidepressant activity in Albino rat assessed as reduction in immobility duration at 20 mg/kg, ip measured during 5 mins by forced swim test relative to control; assay type: functional; set-up: scale not given: the % may be the effect or the level left; settings: route intraperitoneal
[3] = system: Rattus norvegicus; test: Neurotoxicity in rat assessed as minimal motor impairment by measuring coordination time at 100 mg/kg, ip 30 mins prior to testing by rotarod method; assay type: toxicity, organism-based; set-up: dose 100 mg/kg, route intraperitoneal; settings: in vivo, 0.5 h
[4] = system: Escherichia coli; test: Antibacterial activity against Escherichia coli ATCC 35218 assessed as growth inhibition at 10 ug/ml by disc diffusion method; assay type: functional; settings: read-out: IZ
[5] = system: Bacillus subtilis; test: Antibacterial activity against Bacillus subtilis ATCC […] assessed as growth inhibition at 10 ug/ml by disc diffusion method; assay type: functional; settings: read-out: IZ
[6] = system: Staphylococcus aureus; test: Antibacterial activity against Staphylococcus aureus ATCC 6538 assessed as growth inhibition at 10 ug/ml by disc diffusion method; assay type: functional; settings: read-out: IZ

| Structure (SMILES) | zone of inhibition at 10 µg/mL [1] [mm] | Activity [2] [%] | Time [3] [s] | zone of inhibition at 10 µg/mL [4] [mm] | zone of inhibition at 10 µg/mL [5] [mm] | zone of inhibition at 10 µg/mL [6] [mm] |
| --- | --- | --- | --- | --- | --- | --- |
| O=C1CC(c2coc3ccccc3c2=O)N(Cc2ccccc2)C2CCCCC2N1 (configuration not stated) | 5 | 83.56 | 97.17 | 5 | 4 | 8 |
| O=C1CC(c2ccccc2Cl)N(Cc2ccccc2)C2CCCCC2N1 (configuration not stated) | 9 | 78.23 | 95.17 | 4 | 4 | 8 |
| O=C(O)c1cn(C2CC2)c2cc(N3CCNCC3)c(F)cc2c1=O [CIPROFLOXACIN] | 12 | – | – | 9 | 9 | 18 |
| O=C1CC(c2ccc(Br)cc2)N(Cc2ccccc2)C2CCCCC2N1 (configuration not stated) | 8 | 85.82 | 93.67 | 5 | 5 | 10 |
| O=C1CC(c2cc3ccccc3nc2Cl)N(Cc2ccccc2)C2CCCCC2N1 (configuration not stated) | 6 | 85.27 | 98.33 | 6 | 6 | 13 |
| O=C1CC(c2ccccc2)N(Cc2ccccc2)C2CCCCC2N1 (configuration not stated) | 6 | 81.56 | 100.33 | 5 | 6 | 9 |
| O=C1CC(c2ccc([N+](=O)[O-])cc2)N(Cc2ccccc2)C2CCCCC2N1 (configuration not stated) | 9 | 89.44 | 93.5 | 4 | 6 | 15 |
| O=C1CC(c2ccccc2Br)N(Cc2ccccc2)C2CCCCC2N1 (configuration not stated) | 5 | 71.1 | 91.33 | 6 | 6 | 15 |
| COc1ccc(C2CC(=O)NC3CCCCC3N2Cc2ccccc2)cc1OC (configuration not stated) | 5 | 89.03 | 96.5 | 8 | 7 | 7 |
| O=C1CC(c2cccc([N+](=O)[O-])c2)N(Cc2ccccc2)C2CCCCC2N1 (configuration not stated) | 7 | 85.82 | 92.34 | 4 | 3 | 10 |
| O=C1CC(c2ccc(Cl)cc2)N(Cc2ccccc2)C2CCCCC2N1 (configuration not stated) | 4 | 88.03 | 90.83 | 3 | 3 | 10 |
| COc1ccc(C2CC(=O)NC3CCCCC3N2Cc2ccccc2)cc1 (configuration not stated) | 7 | 86.4 | 97.83 | 5 | 3 | 12 |
| CN(C)CCCN1c2ccccc2CCc2ccc(Cl)cc21 [CLOMIPRAMINE] | – | 92.21 | 110.83 | – | – | – |

Reference: ChEMBL document CHEMBL2429815, “Synthesis of 5-benzyl-4-aryl-octahydro-1H-benzo[b][1,5]diazepin-2-ones as potent antidepressant and antimicrobial agents” (Med Chem Res, 2013)
